A word on the pIC50: it is −log10 of the IC50, conventionally taken in molar units.

The target of assay [1] is T1, EIF2AK3 (PERK) catalytic domain (amino acids 536-1116) (Homo sapiens, UniProt Q9NZJ5).
T1 construct: EIF2AK3 (PERK) catalytic domain (amino acids 536-1116)
T1 sequence (Q9NZJ5 536-1116): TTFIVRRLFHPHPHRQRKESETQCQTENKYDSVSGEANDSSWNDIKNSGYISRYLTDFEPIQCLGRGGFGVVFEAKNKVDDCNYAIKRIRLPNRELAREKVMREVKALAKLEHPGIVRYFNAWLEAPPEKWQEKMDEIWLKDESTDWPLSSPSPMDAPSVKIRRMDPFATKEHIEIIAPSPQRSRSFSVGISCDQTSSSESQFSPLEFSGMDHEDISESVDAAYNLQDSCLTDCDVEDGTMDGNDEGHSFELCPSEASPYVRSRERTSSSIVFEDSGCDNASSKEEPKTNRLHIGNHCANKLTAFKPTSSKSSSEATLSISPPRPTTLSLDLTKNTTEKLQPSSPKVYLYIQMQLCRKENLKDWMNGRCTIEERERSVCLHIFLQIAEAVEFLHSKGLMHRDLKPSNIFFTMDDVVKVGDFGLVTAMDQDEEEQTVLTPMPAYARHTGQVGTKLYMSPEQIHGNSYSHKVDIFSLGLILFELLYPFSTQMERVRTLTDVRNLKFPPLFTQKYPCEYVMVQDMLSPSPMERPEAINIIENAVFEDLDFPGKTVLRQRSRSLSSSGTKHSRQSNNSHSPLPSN
Kind of assay: PERK in vitro activity assay (isolated), TR-FRET kinase assay. The note with it: isolated PERK enzyme, 1.5 μM ATP; read-out: Biochemical IC50. The format is biochemical. Summed up:
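TR-FRET read-out: after EDTA stop (10 mM final), Tb-labelled phospho-eIF2a antibody (2 nM) for 90 min; IC50 via 4-parameter nonlinear fit. Reaction: PERK aa 536-1116, GFP-eIF2a 100-200 nM, HEPES pH 7.5 with MgCl2/EGTA/Brij-35, 45 min, room temperature, started by enzyme.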
(In general: TR-FRET usually uses a lanthanide donor and a delayed reading to cut background.)

Assay [2] has as its system GFP-eIF2α in HEK293 cells. Kind of assay: PERK cellular assay, TR-FRET in HEK293-EGFP-eIF2a cells after tunicamycin-induced ER stress. The format is cell-based. The note with it: HEK293-EGFP-eIF2a cells, tunicamycin 2 hours, read-out: Cellular eIF2α IC50. Summed up:
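Compounds were added 30 min before a 2 h tunicamycin ([…]) challenge of lentivirally made GFP-eIF2α HEK293 cells, 5000/well; lysate TR-FRET ratio was the read-out.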

The structures appear in SMILES notation. pIC50: −log10 of the molar value. Like-named read-outs stand apart in the source and are kept apart here.

For `CCc1cccc(CC(=O)Nc2ccc(-c3cn(C)c4ncnc(N)c34)c(C)c2)c1` [Example 146, N-(4-(4-amino-7-methyl-7H-pyrrolo[2,3-d]pyrimidin-5-yl)-3-methylphenyl)-2-(3-ethylphenyl)acetamide], the pIC50 was 7.60 to 9.00 in assay [1] and 7.60 to 9.00 in assay [2] (Homo sapiens, HEK293, 2 h).
As for `Cn1cc(-c2ccc(NC(=O)C(O)c3cccc(F)c3)cc2F)c2c(N)ncnc21` (single isomer, unassigned) [Example 3, N-(4-(4-amino-7-methyl-7H-pyrrolo[2,3-d]pyrimidin-5-yl)-3-fluorophenyl)-2-(3-fluorophenyl)-2-hydroxyacetamide], the negative-log IC50 (pIC50) in assay [1] was 7.60 to 9.00; in assay [2] it was 7.30 to 7.59.
For `Cc1cccc(C(O)C(=O)Nc2ccc(-c3cn(C)c4nc(C)nc(N)c34)c(Cl)c2)c1` (stereo not drawn) [Example 95, N-(4-(4-amino-2,7-dimethyl-7H-pyrrolo[2,3-d]pyrimidin-5-yl)-3-chlorophenyl)-2-hydroxy-2-(m-tolyl)acetamide], in that order: 7.00 to 7.29 and 6.30 to 6.60.
As to `Cc1cc(NC(=O)C(F)(F)c2ccccc2)ccc1-c1cn(C)c2ncnc(N)c12` [Example 28, N-(4-(4-amino-7-methyl-7H-pyrrolo[2,3-d]pyrimidin-5-yl)-3-methylphenyl)-2,2-difluoro-2-phenylacetamide], the pIC50 in assay [1] is 6.30 to 6.60; in assay [2] (Homo sapiens, HEK293, 2 h), 6.00 to 6.30.
In the case of `Cc1nc(N)c2c(-c3ccc(NC(=O)C(O)c4cc(F)cc(C(F)(F)F)c4)c(F)c3F)cn(C)c2n1` (single isomer, unassigned) [Example 115, N-(4-(4-amino-2,7-dimethyl-7H-pyrrolo[2,3-d]pyrimidin-5-yl)-2,3-difluorophenyl)-2-(3-fluoro-5-(trifluoromethyl)phenyl)-2-hydroxyacetamide], the pIC50 in assay [1] and in assay [2] was 7.60 to 9.00 each time.
In the case of `Cc1cc(NC(=O)C(O)c2cccc(F)c2)c(F)cc1-c1cn(C)c2ncnc(N)c12` (stereo not drawn) [Example 120, N-(4-(4-amino-7-methyl-7H-pyrrolo[2,3-d]pyrimidin-5-yl)-2-fluoro-5-methylphenyl)-2-(3-fluorophenyl)-2-hydroxyacetamide], the pIC50 was 7.00 to 7.29 in assay [1] and 6.30 to 6.60 in assay [2].
The corresponding values for `Cc1nc(N)c2c(-c3ccc(NC(=O)C(O)c4cc(F)cc(C(F)(F)F)c4)cc3C)cn(C)c2n1` (single isomer, unassigned) [Example 54, N-(4-(4-amino-2,7-dimethyl-7H-pyrrolo[2,3-d]pyrimidin-5-yl)-3-methylphenyl)-2-(3-fluoro-5-(trifluorophenyl)phenyl)-2-hydroxyacetamide] are 7.60 to 9.00 and 7.30 to 7.59.
For `CCc1ccccc1CC(=O)Nc1ccc(-c2cn(C)c3ncnc(N)c23)c(C)c1` [Example 145, N-(4-(4-amino-7-methyl-7H-pyrrolo[2,3-d]pyrimidin-5-yl)-3-methylphenyl)-2-(2-ethylphenyl)acetamide], the pIC50 in assay [1] was 7.60 to 9.00; in assay [2] (Homo sapiens, HEK293, 2 h), 7.30 to 7.59.
Consider `Cc1cc(NC(=O)C(N)c2ccccc2)ccc1-c1cn(C)c2ncnc(N)c12` (stereo not drawn) [Example 27, 2-amino-N-(4-(4-amino-7-methyl-7H-pyrrolo[2,3-d]pyrimidin-5-yl)-3-methylphenyl)-2-phenylacetamide], for which the pIC50 was 6.60 to 7.00 in assay [1] and 6.30 to 6.60 in assay [2] (Homo sapiens, HEK293, 2 h).
Consider `Cc1cc(NC(=O)C(O)c2ccccc2Cl)ccc1-c1cn(C)c2ncnc(N)c12` (stereo not drawn) [Example 33, N-(4-(4-amino-7-methyl-7H-pyrrolo[2,3-d]pyrimidin-5-yl)-3-methylphenyl)-2-(2-chlorophenyl)-2-hydroxyacetamide], for which the pIC50 in assay [1] was 7.60 to 9.00; in assay [2] (Homo sapiens, HEK293, 2 h), 7.00 to 7.29.
Consider `CCc1ccc(CC(=O)Nc2ccc(-c3cn(C)c4ncnc(N)c34)c(C)c2)cc1` [Example 147, N-(4-(4-amino-7-methyl-7H-pyrrolo[2,3-d]pyrimidin-5-yl)-3-methylphenyl)-2-(4-ethylphenyl)acetamide], for which the pIC50 was 7.60 to 9.00 in assay [1] and 7.00 to 7.29 in assay [2] (Homo sapiens, HEK293, 2 h).
On to `Cc1nc(N)c2c(-c3ccc(NC(=O)C(O)c4cccc(C(F)(F)F)c4)cc3Cl)cn(C)c2n1` (stereo not drawn) [Example 101, N-(4-(4-amino-2,7-dimethyl-7H-pyrrolo[2,3-d]pyrimidin-5-yl)-3-chlorophenyl)-2-hydroxy-2-(3-(trifluoromethyl)phenyl)acetamide], for which the pIC50 in assay [1] and in assay [2] was 7.60 to 9.00 in each case.
For the compound `Cc1nc(N)c2c(-c3ccc(NC(=O)C(O)c4cccc(F)c4)c(F)c3F)cn(C)c2n1` (single isomer, unassigned) [Example 109, N-(4-(4-amino-2,7-dimethyl-7H-pyrrolo[2,3-d]pyrimidin-5-yl)-2,3-difluorophenyl)-2-(3-fluorophenyl)-2-hydroxyacetamide], the pIC50 in assay [1] is 6.30 to 6.60; in assay [2], 5.70 to 6.00.
Take `Cc1cccc(C(O)C(=O)Nc2ccc(-c3cn(C)c4nc(C)nc(N)c34)c(F)c2)c1` (stereo not drawn) [Example 74, N-(4-(4-amino-2,7-dimethyl-7H-pyrrolo[2,3-d]pyrimidin-5-yl)-3-fluorophenyl)-2-hydroxy-2-(m-tolyl)acetamide]: the pIC50 in assay [1] and in assay [2] was 7.60 to 9.00 throughout.
For `Cc1nc(N)c2c(-c3ccc(NC(=O)C(O)c4cccc(Cl)c4)cc3C)cn(C)c2n1` (stereo not drawn) [Example 36, N-(4-(4-amino-2,7-dimethyl-7H-pyrrolo[2,3-d]pyrimidin-5-yl)-3-methylphenyl)-2-(3-chlorophenyl)-2-hydroxyacetamide], the negative-log IC50 (pIC50) is 7.60 to 9.00 in assay [1] and 7.30 to 7.59 in assay [2].
The corresponding values for `Cc1nc(N)c2c(-c3ccc(NC(=O)C(O)c4cc(F)cc(F)c4)cc3C)cn(C)c2n1` (stereo not drawn) [Example 53, N-(4-(4-amino-2,7-dimethyl-7H-pyrrolo[2,3-d]pyrimidin-5-yl)-3-methylphenyl)-2-(3,5-difluorophenyl)-2-hydroxyacetamide] are 7.30 to 7.59 and 6.30 to 6.60.
Turning to `Cc1cc(NC(=O)C(O)c2cccc(Cl)c2)ccc1-c1cn(C)c2ncnc(N)c12` (stereo not drawn) [Example 35, N-(4-(4-amino-7-methyl-7H-pyrrolo[2,3-d]pyrimidin-5-yl)-3-methylphenyl)-2-(3-chlorophenyl)-2-hydroxyacetamide], the pIC50 is 7.60 to 9.00 in assay [1] and 7.60 to 9.00 in assay [2] (Homo sapiens, HEK293, 2 h).
For the compound `Cc1cccc(C(O)C(=O)Nc2ccc(-c3cn(C)c4nc(C)nc(N)c34)c(Cl)c2)c1` (stereo not drawn) [Example 96, N-(4-(4-amino-2,7-dimethyl-7H-pyrrolo[2,3-d]pyrimidin-5-yl)-3-chlorophenyl)-2-hydroxy-2-(m-tolyl)acetamide], the pIC50 in assay [1] and in assay [2] was 7.60 to 9.00 throughout.
As for `Cc1nc(N)c2c(-c3ccc(NC(=O)C(O)c4cccc(F)c4)cc3F)cn(C)c2n1` (stereo not drawn) [Example 79, N-(4-(4-amino-2,7-dimethyl-7H-pyrrolo[2,3-d]pyrimidin-5-yl)-3-fluorophenyl)-2-(3-fluorophenyl)-2-hydroxyacetamide], the pIC50 in assay [1] is 7.00 to 7.29; in assay [2], 6.00 to 6.30.
On to `Cn1cc(-c2ccc(NC(=O)C(O)c3cccc(F)c3)cc2)c2c(N)ncnc21` (stereo not drawn) [Example 30, N-(4-(4-amino-7-methyl-7H-pyrrolo[2,3-d]pyrimidin-5-yl)phenyl)-2-(3-fluorophenyl)-2-hydroxyacetamide], for which the pIC50 was 7.60 to 9.00 in assay [1] and 6.60 to 7.00 in assay [2].
Take `Cc1cc(NC(=O)Cc2cccc(C(C)C)c2)ccc1-c1cn(C)c2ncnc(N)c12` [Example 148, N-(4-(4-amino-7-methyl-7H-pyrrolo[2,3-d]pyrimidin-5-yl)-3-methylphenyl)-2-(3-isopropylphenyl)acetamide]: the pIC50 in assay [1] was 7.60 to 9.00; in assay [2] (Homo sapiens, HEK293, 2 h), 6.60 to 7.00.
For `Cc1cc(NC(=O)Cc2cccc(C)c2C)ccc1-c1cn(C)c2ncnc(N)c12` [Example 162, N-(4-(4-amino-7-methyl-7H-pyrrolo[2,3-d]pyrimidin-5-yl)-3-methylphenyl)-2-(2,3-dimethylphenyl)acetamide], in that order: 7.60 to 9.00 and 7.00 to 7.29.
With `Cc1nc(N)c2c(-c3ccc(NC(=O)C(O)c4cccc(C(F)(F)F)c4)cc3C)cn(C)c2n1` (stereo not drawn) [Example 49, N-(4-(4-amino-2,7-dimethyl-7H-pyrrolo[2,3-d]pyrimidin-5-yl)-3-methylphenyl)-2-hydroxy-2-(3-(trifluoromethyl)phenyl)acetamide], the negative logarithm of the IC50 (pIC50) was 7.60 to 9.00 in assay [1] and 7.30 to 7.59 in assay [2].
As for `Cc1nc(N)c2c(-c3ccc(NC(=O)C(O)c4cc(F)cc(F)c4)cc3F)cn(C)c2n1` (stereo not drawn) [Example 84, N-(4-(4-amino-2,7-dimethyl-7H-pyrrolo[2,3-d]pyrimidin-5-yl)-3-fluorophenyl)-2-(3,5-difluorophenyl)-2-hydroxyacetamide], the figures for the pIC50 in assay [1] and in assay [2] were 7.00 to 7.29 and 6.60 to 7.00, respectively.

The values are drawn from patent US20220356186A1, “PERK INHIBITING PYRROLOPYRIMIDINE COMPOUNDS” (HiberCell, Inc., priority 2019, published 2022).
